Measurements as given in patent publication US20230391824A1, “RATIONALE, DESIGN, SYNTHESIS AND VALIDATION OF A SMALL MOLECULE ANTICANCER AGENT” (priority 2021, published 2023).

Key:
LIN28B protein = target: T1, LIN28B protein (Homo sapiens, UniProt Q6ZN17); test: Western blotting of Lin28B protein in cancer cell models; format: cell-based; conditions: YP-MEL, BT-37, NT-2 cells; at the tested dosages
T1 construct: in a panel of endogenously LIN28 expressing cancer cell models; endogenous in cells; host or cells: YP-MEL, BT-12, BT-37, NT-2 (NTERA)
T1 sequence (Q6ZN17 1-250): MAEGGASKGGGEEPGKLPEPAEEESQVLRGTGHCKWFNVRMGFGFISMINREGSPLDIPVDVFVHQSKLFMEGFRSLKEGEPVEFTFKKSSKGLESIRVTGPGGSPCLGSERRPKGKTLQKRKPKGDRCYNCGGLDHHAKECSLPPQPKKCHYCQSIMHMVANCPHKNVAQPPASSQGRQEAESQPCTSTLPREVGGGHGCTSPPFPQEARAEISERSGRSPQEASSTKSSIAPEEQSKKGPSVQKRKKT
Procedure: FIG. 5: Compound of formula (I) mixture, containing the two isomers (P1+P2) causes significant reduction in Lin28A protein from 5 μM onwards, in a panel of endogenously LIN28 expressing cancer cell models. […] LIN28A and LIN28B expression profile in pediatric CNS cancer cell lines, 96-hr post-treatment with Compound of formula (I). SDS-PAGE on 10% polyacrylamide gel of total cell lysates from untreated cells harvested at 80-90% confluency. Samples loaded with volumes for 20 μg protein. LIN28A and LIN28B proteins were detected using the anti-LIN28A antibody (#8706; Cell Signaling Technology) and anti-LIN28B antibody (#11965; Cell Signalling Technology) at 1:2000 dilutions. T47D: adult breast cancer (LIN28A expressing); YPMEL: malignant melanoma derived from Neurocutaneous Melanosis (NCM) (Lin28A and Lin28B expressing); BT-12: pediatric atypical-teratoid rhabdoid tumor (AT/RT). […]
The proteins were extracted from the same samples as the RNA using the RIPA lysis buffer. […] The proteins were detected using the anti-Lin28A antibody (#8706; Cell Signaling Technology), anti-Lin28B antibody (#11965, Cell Signaling Technology) the anti-beta-actin antibody at respectively 1:2000, 1:2000 and 1:5000 dilutions.

[1] = test system: NT-2 testicular cancer cells; test: Flow cytometric (propidium iodide) cell cycle analysis of NT-2 cells; format: cell-based; conditions: first 24h
Procedure: FIG. 9: NT-2, testicular cancer cells, were incubated with Compound of formula (I) isomers for 24h and subjected to Flow Cytometric analysis to determine the alterations in cancer cell cycle. […] Therefore, only the P1 isomer of Compound of formula (I) was investigated further to determine its in vitro and in vivo efficacy.
The method for Propidium Iodide (PI) based cell cycle analysis was performed as per the instructions given by the manufacturer (AB139418; Abcam). Briefly NT-2 cells treated with Compound of formula (I) versions were harvested in single cell suspensions with each experimental condition containing two million cells, fixed in 66% Ethanol overnight at 4° C. The ethanol was removed thoroughly by centrifugation, followed by rehydration of cells in PBS with a repeat of centrifugation. Cells were stained in PI (1%) and RNase solution (1%) in PBS for 30 minutes at 37° C. in the dark. The cells were analyzed immediately on the Flow Cytometer.

SMILES: CC[C@H](C)[C@H](NC(=O)[C@H](Cc1ncc[nH]1)NC(=O)c1cccc(C(N)=O)c1)C(=O)Nc1ccc(O)c(-c2nc3ccccc3s2)c1 [Compound P1]
- Lin28B expression (LIN28B protein): remained unaltered
- share of total cell count that had undergone cell death [1]: approximately 10%
